Patent US20210330611A1, “THERAPY FOR NEUROLOGICAL DISEASES/DISORDERS” (priority 2020, published 2021)
Where a name gives a salt, the structure may show the parent alone. Read-outs that look alike come from different tables or passages of the source.

Experiments:
[1] = tested on: fibrin-induced microglia activation; experiment: Image-based assay of fibrin-induced microglia activation (HTS and dose response); assay type: cell-based, rat; settings: for inhibition at 10 µM: Rattus norvegicus, Microglia, read-out: Fibrin % inhibition
[2] = tested on: LPS-induced microglia activation; experiment: Image-based assay of LPS-induced microglia activation (HTS and dose response); assay type: cell-based, rat; settings: for inhibition at 10 µM: Rattus norvegicus, Microglia, read-out: LPS % inhibition
[3] = tested on: fibrin- and LPS-induced microglia activation; experiment: cells; assay type: cell-based, rat
primary rat microglia [4] = tested on: primary rat microglia;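 on Fibrin % cell toxicity: share of dead cells sized under 150 µm2 at 10 µM in fibrin-stimulated microglia HTS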
primary rat microglia [5] = tested on: primary rat microglia; remark: listed apart in the source;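 on Fibrin % cell toxicity: share of dead cells sized under 150 µm2 at 10 µM in fibrin-stimulated microglia HTS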
[6] = primary HTS, 10 μM, fibrin-stimulated primary microglia
[7] = primary HTS, 10 μM, LPS-stimulated primary microglia

CC(C)C[C@H](NC(=O)[C@H](Cc1ccccc1)NC(=O)c1cnccn1)B(O)O [Bortezomib]
inhibition at 10 µM ([1]; primary microglia HTS, fibrin stimulation, increased cell size (>800 μm^2) as marker of activation): 106% | inhibition at 10 µM ([2]; 48 h, primary microglia HTS, LPS stimulation, increased cell size (>800 μm^2) as marker of activation): 106% | Quadrant (FIG. 5b) ([3]; quadrant by fibrin and LPS inhibition in HTS of 1907 compounds): Q2 | Fibrin % cell toxicity (primary rat microglia [4]; rat): 86% | LPS % cell toxicity (primary rat microglia [5]; rat): 56%

CC[N+](C)(C)Cc1ccccc1Br [Bretylium]
inhibition at 10 µM [1]: -26% | inhibition at 10 µM [2]: -9% | Quadrant (FIG. 5b) [3]: Q4 | Fibrin % cell toxicity (primary rat microglia [4]; rat): 0% | LPS % cell toxicity (primary rat microglia [5]; rat): 0%

Brc1c(NC2=NCCN2)ccc2nccnc12 [Brimonidine]
inhibition at 10 µM [1]: -36% | inhibition at 10 µM [2]: -9% | Quadrant (FIG. 5b) [3]: Q4 | Fibrin % cell toxicity (primary rat microglia [4]; rat): 1% | LPS % cell toxicity (primary rat microglia [5]; rat): 0%

CCOc1ccc(NC(=O)CC(C)O)cc1 (stereo not drawn) [Bucetin]
inhibition at 10 µM [1, 6]: -25% | inhibition at 10 µM [2, 7]: 12% | Quadrant (FIG. 5b) ([3]; primary HTS, 10 μM): Q4 | Fibrin % cell toxicity (primary rat microglia [4]; rat): 0% | LPS % cell toxicity (primary rat microglia [5]; rat): 0%

O=C1CC2(CCCC2)CC(=O)N1CCCCN1CCN(c2ncccn2)CC1 [Buspirone]
inhibition at 10 µM [1]: -13% | inhibition at 10 µM [2]: 8% | Quadrant (FIG. 5b) [3]: Q4 | Fibrin % cell toxicity (primary rat microglia [4]; rat): 0% | LPS % cell toxicity (primary rat microglia [5]; rat): 0%

CS(=O)(=O)OCCCCOS(C)(=O)=O [Busulfan]
inhibition at 10 µM [1, 6]: 1% | inhibition at 10 µM [2, 7]: 2% | Quadrant (FIG. 5b) ([3]; primary HTS, 10 μM): Q4 | Fibrin % cell toxicity (primary rat microglia [4]; rat): 0% | LPS % cell toxicity (primary rat microglia [5]; rat): 0%

O=C(O)CCC(=O)OC[C@@H](NC(=O)C(Cl)Cl)[C@H](O)c1ccc([N+](=O)[O-])cc1 [CHLOR[…]]
inhibition at 10 µM [1]: 24% | inhibition at 10 µM [2]: 14% | Quadrant (FIG. 5b) [3]: Q4 | Fibrin % cell toxicity (primary rat microglia [4]; rat): 2% | LPS % cell toxicity (primary rat microglia [5]; rat): 1%

CCCCCOC(=O)Nc1nc(=O)n([C@@H]2O[C@H](C)[C@@H](O)[C@H]2O)cc1F [Capecitabine]
inhibition at 10 µM [1, 6]: 43% | inhibition at 10 µM [2, 7]: 25% | Quadrant (FIG. 5b) ([3]; primary HTS, 10 μM): Q4 | Fibrin % cell toxicity (primary rat microglia [4]; rat): 1% | LPS % cell toxicity (primary rat microglia [5]; rat): 1%

CCN(CC)CCOCCOC(=O)C1(c2ccccc2)CCCC1 [Carbetapentane Citrate]
inhibition at 10 µM [1, 6]: -13% | inhibition at 10 µM [2, 7]: 7% | Quadrant (FIG. 5b) ([3]; primary HTS, 10 μM): Q4 | Fibrin % cell toxicity (primary rat microglia [4]; rat): 1% | LPS % cell toxicity (primary rat microglia [5]; rat): 0%

CC(C(=O)O)c1ccc2c(c1)[nH]c1ccc(Cl)cc12 (stereo not drawn) [Carprofen]
inhibition at 10 µM [1, 6]: -2% | inhibition at 10 µM [2, 7]: 15% | Quadrant (FIG. 5b) ([3]; primary HTS, 10 μM): Q4 | Fibrin % cell toxicity (primary rat microglia [4]; rat): 0% | LPS % cell toxicity (primary rat microglia [5]; rat): 0%

CC=CC1=C(C(=O)O)N2C(=O)[C@@H](NC(=O)[C@H](N)c3ccc(O)cc3)[C@H]2SC1 [Cefprozil]
Fibrin % inhibition [1, 6]: 3% | LPS % inhibition [2, 7]: 14% | Quadrant (FIG. 5b) ([3]; primary HTS, 10 μM): Q4 | Fibrin % cell toxicity (primary rat microglia [4]): 0% | LPS % cell toxicity (primary rat microglia [5]): 0%

CO/N=C(\C(=O)N[C@@H]1C(=O)N2C(C(=O)O)=C(CSc3nc(=O)c(=O)[nH]n3C)CS[C@H]12)c1csc(N)n1 [Ceftriaxone]
inhibition at 10 µM [1]: -16% | inhibition at 10 µM [2]: 12% | Quadrant (FIG. 5b) [3]: Q4 | Fibrin % cell toxicity (primary rat microglia [4]; rat): 1% | LPS % cell toxicity (primary rat microglia [5]; rat): 0%

CO/N=C(\C(=O)N[C@@H]1C(=O)N2C(C(=O)O)=C(COC(N)=O)CS[C@H]12)c1ccco1 [Cefuroxime Sodium]
Fibrin % inhibition [1, 6]: −12% | LPS % inhibition [2, 7]: 19% | Quadrant (FIG. 5b) ([3]; primary HTS, 10 μM): Q4 | Fibrin % cell toxicity (primary rat microglia [4]; rat): 1% | LPS % cell toxicity (primary rat microglia [5]; rat): 1%

CO/N=C(\C(=O)N[C@@H]1C(=O)N2C(C(=O)O)=C(COC(N)=O)CS[C@H]12)c1ccco1 [Cefuroxime]
Fibrin % inhibition [1, 6]: 16% | LPS % inhibition [2, 7]: 2% | Quadrant (FIG. 5b) ([3]; primary HTS, 10 μM): Q4 | Fibrin % cell toxicity (primary rat microglia [4]; rat): 1% | LPS % cell toxicity (primary rat microglia [5]; rat): 0%

Cc1ccc(-c2cc(C(F)(F)F)nn2-c2ccc(S(N)(=O)=O)cc2)cc1 [Celecoxib]
inhibition at 10 µM [1, 6]: -31% | inhibition at 10 µM [2, 7]: 21% | Quadrant (FIG. 5b) ([3]; primary HTS, 10 μM): Q4 | Fibrin % cell toxicity (primary rat microglia [4]; rat): 0% | LPS % cell toxicity (primary rat microglia [5]; rat): 0%

OC[C@@H](O)[C@H]1O[C@@H]2O[C@H](C(Cl)(Cl)Cl)O[C@@H]2[C@H]1O [Chloralose]
inhibition at 10 µM [1]: -14% | inhibition at 10 µM [2]: 9% | Quadrant (FIG. 5b) [3]: Q4 | Fibrin % cell toxicity (primary rat microglia [4]; rat): 1% | LPS % cell toxicity (primary rat microglia [5]; rat): 0%

O=C(O)CCCc1ccc(N(CCCl)CCCl)cc1 [Chlorambucil]
inhibition at 10 µM [1, 6]: 8% | inhibition at 10 µM [2, 7]: -7% | Quadrant (FIG. 5b) ([3]; primary HTS, 10 μM): Q4 | Fibrin % cell toxicity (primary rat microglia [4]; rat): 1% | LPS % cell toxicity (primary rat microglia [5]; rat): 0%

CCN(CC)CCCC(C)Nc1ccnc2cc(Cl)ccc12 (stereo not drawn) [Chloroquine]
inhibition at 10 µM [1]: 2% | inhibition at 10 µM [2]: 7% | Quadrant (FIG. 5b) [3]: Q4 | Fibrin % cell toxicity (primary rat microglia [4]; rat): 0% | LPS % cell toxicity (primary rat microglia [5]; rat): 0%

Oc1c(Cl)cc(Cl)c2cccnc12 [Chloroxine]
inhibition at 10 µM [1, 6]: -17% | inhibition at 10 µM [2, 7]: 8% | Quadrant (FIG. 5b) ([3]; primary HTS, 10 μM): Q4 | Fibrin % cell toxicity (primary rat microglia [4]; rat): 1% | LPS % cell toxicity (primary rat microglia [5]; rat): 0%

CN(C)CCC(c1ccc(Cl)cc1)c1ccccn1 (stereo not drawn) [Chlorphenamine]
inhibition at 10 µM [1, 6]: 0% | inhibition at 10 µM [2, 7]: 13% | Quadrant (FIG. 5b) [3]: Q4 | Fibrin % cell toxicity (primary rat microglia [4]; rat): 1% | LPS % cell toxicity (primary rat microglia [5]; rat): 0%

CCOP(=S)(OCC)Oc1nc(Cl)c(Cl)cc1Cl [Chlorpyrifos]
inhibition at 10 µM [1, 6]: -7% | inhibition at 10 µM [2, 7]: 1% | Quadrant (FIG. 5b) ([3]; primary HTS, 10 μM): Q4 | Fibrin % cell toxicity (primary rat microglia [4]; rat): 1% | LPS % cell toxicity (primary rat microglia [5]; rat): 0%

C[C@H](CCC(=O)O)[C@H]1CC[C@H]2[C@@H]3[C@H](O)C[C@@H]4C[C@H](O)CC[C@]4(C)[C@H]3C[C@H](O)[C@]12C [Cholic Acid]
inhibition at 10 µM [1]: -31% | inhibition at 10 µM [2]: -5% | Quadrant (FIG. 5b) [3]: Q4 | Fibrin % cell toxicity (primary rat microglia [4]; rat): 0% | LPS % cell toxicity (primary rat microglia [5]; rat): 0%

C[N+](C)(C)CCO [Choline]
inhibition at 10 µM [1]: 0% | inhibition at 10 µM [2]: 12% | Quadrant (FIG. 5b) [3]: Q4 | Fibrin % cell toxicity (primary rat microglia [4]; rat): 0% | LPS % cell toxicity (primary rat microglia [5]; rat): 0%

CC1(C)C[C@@H]1C(=O)N/C(=C\CCCCSC[C@H](N)C(=O)O)C(=O)O [Cilastatin]
inhibition at 10 µM [1]: -6% | inhibition at 10 µM [2]: 2% | Quadrant (FIG. 5b) [3]: Q4 | Fibrin % cell toxicity (primary rat microglia [4]; rat): 1% | LPS % cell toxicity (primary rat microglia [5]; rat): 0%

O=C1CCc2cc(OCCCCc3nnnn3C3CCCCC3)ccc2N1 [Cilostazol]
inhibition at 10 µM [1, 6]: 5% | inhibition at 10 µM [2, 7]: 17% | Quadrant (FIG. 5b) ([3]; primary HTS, 10 μM): Q4 | Fibrin % cell toxicity (primary rat microglia [4]; rat): 1% | LPS % cell toxicity (primary rat microglia [5]; rat): 1%

CN/C(=N/CCSCc1nc[nH]c1C)NC#N [Cimetidine]
inhibition at 10 µM [1]: -1% | inhibition at 10 µM [2]: 22% | Quadrant (FIG. 5b) [3]: Q4 | Fibrin % cell toxicity (primary rat microglia [4]; rat): 0% | LPS % cell toxicity (primary rat microglia [5]; rat): 1%

CC(C)(Oc1ccc(C2CC2(Cl)Cl)cc1)C(=O)O (stereo not drawn) [Ciprofibrate]
inhibition at 10 µM [1, 6]: -16% | inhibition at 10 µM [2, 7]: 16% | Quadrant (FIG. 5b) ([3]; primary HTS, 10 μM): Q4 | Fibrin % cell toxicity (primary rat microglia [4]; rat): 0% | LPS % cell toxicity (primary rat microglia [5]; rat): 1%

COc1cc(N)c(Cl)cc1C(=O)NC1CCN(CCCOc2ccc(F)cc2)CC1OC (stereo not drawn) [Cisapride]
inhibition at 10 µM [1, 6]: -38% | inhibition at 10 µM [2, 7]: 5% | Quadrant (FIG. 5b) ([3]; primary HTS, 10 μM): Q4 | Fibrin % cell toxicity (primary rat microglia [4]; rat): 0% | LPS % cell toxicity (primary rat microglia [5]; rat): 0%

C[N+](C)(C)CCOP(=O)(O)OP(=O)([O-])OC[C@H]1O[C@@H](n2ccc(N)nc2=O)[C@H](O)[C@@H]1O [Citicoline]
inhibition at 10 µM [1, 6]: 5% | inhibition at 10 µM [2, 7]: 16% | Quadrant (FIG. 5b) ([3]; primary HTS, 10 μM): Q4 | Fibrin % cell toxicity (primary rat microglia [4]; rat): 1% | LPS % cell toxicity (primary rat microglia [5]; rat): 0%

O=C(O)CC(O)(CC(=O)O)C(=O)O [Citric Acid]
inhibition at 10 µM [1]: -36% | inhibition at 10 µM [2]: -6% | Quadrant (FIG. 5b) [3]: Q4 | Fibrin % cell toxicity (primary rat microglia [4]; rat): 1% | LPS % cell toxicity (primary rat microglia [5]; rat): 0%
